The text below walks through data of patent EP4775219A1, “USE OF VIRUS 3C PROTEASE IN PREVENTION OR TREATMENT OF TUMOR” (Academy of Military Medical Sciences, priority 2023, dated 2025).

Each structure is given as a SMILES string.

Data set [1] deals with 3C protein in U87 MG cells (Enterovirus A71, UniProt B9VUU3). It is filed as cell-based, EV71 or Coxsackievirus A14. The procedure: (§1) Rupintrivir (AG7088) is an effective, selective and irreversible 3C protease inhibitor. U87 MG cells and A172 cells were seeded in white-walled clear-bottom 96-well plates at a density of 1.0×10^4 per well, and cultured at 37°C with 5% CO2 for 24 hours. Subsequently, EV-3C-mRNA was diluted with Opti-MEM to final concentrations of 998.4 ng/ml, 499.2 ng/ml, 249.6 ng/ml, 124.8 ng/ml, 62.4 ng/ml, 31.2 ng/ml, and 15.6 ng/ml, and transfected into cells with Lipo2000 liposomes. Compound AG7088 was serially diluted with 2% cell maintenance medium and then added to the 96-well plates to final concentrations of 10µM, 1µM and 0µM, respectively. After 48h, the supernatant was discarded, and the diluted Cell-Titer Glo® Luminescent Cell Viability assay solution was added. The mixture was shaken for 5min in the dark to lyse the cells, followed by standing for 3min. Finally, the luminescence value of each well was measured using a microplate reader. Cell viability (%) = average value of experimental group/average value of cell control group × 100 [formula]
Chain of 3C protein in U87 MG cells (B9VUU3 1549-1731, change not shown): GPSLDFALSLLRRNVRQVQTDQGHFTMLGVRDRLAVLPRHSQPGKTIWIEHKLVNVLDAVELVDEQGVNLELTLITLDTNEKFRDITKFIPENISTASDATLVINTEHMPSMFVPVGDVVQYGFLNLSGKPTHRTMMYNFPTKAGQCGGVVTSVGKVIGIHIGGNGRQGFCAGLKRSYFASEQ
(§2) Data analysis: The inhibition rate-concentration curve was fitted to a sigmoidal curve using Origin9.0 software to calculate the half-maximal effective concentration (EC50) of AG7088 against 3C-mRNA. The half-cytotoxic concentration (CC50) of the compound was calculated using the same method.

Data set [2] addresses 3C protein in A172 cells (Enterovirus A71, UniProt B9VUU3). The data set is described as follows: AG7088 blocking the inhibition of cell viability by EV-3C-mRNA. In kind it is cell-based, EV71 or Coxsackievirus A14. Conditions: inhibition of the decrease in cell viability caused by 3C-mRNA transfection. The procedure:
as §1, §2

Data set [3] can be described thus: in vitro. In kind it is cell-based. Conditions: human. The procedure: as §2
The nature of data set [4]: in vitro. It is filed as cell-based. Conditions: human. The procedure: as §2
The source holds these as a separate data set.

Chain of 3C protein in A172 cells (B9VUU3 1549-1731, change not shown): as above

`CCOC(=O)/C=C/[C@H](C[C@@H]1CCNC1=O)NC(=O)[C@@H](CC(=O)[C@@H](NC(=O)c1cc(C)on1)C(C)C)Cc1ccc(F)cc1` [AG7088, Rupintrivir]: the “Viability of U87 cells (%)” value in data set [1] (AG7088 1µM + EV-3C-mRNA 31.2 ng/ml, 48h) is on record as 95.64±2%. In addition, the 50% inhibitory concentration (IC50) in data set [1] (inhibition of the decrease in cell viability caused by 3C-mRNA transfection, U87 MG cells) amounted to 1.15 ± 0.19 µM; in data set [2] it was 0.439 ± 0.03 µM. The CC50 in data set [3] and in data set [4] was > 100 µM throughout.

The IC50 is the point on the concentration scale where inhibition reaches its midpoint. The low end stands for inhibition by little substance, the high end for a need for much substance. A word on the CC50: it is the concentration that lowers cell viability or growth by half. Lower therefore signals harm at low concentration.
